Experimental data reported in PubChem BioAssay AID720588 (Broad Institute, 2013).
The source made the active and inactive calls.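 Rule for the calls: active = fitted curve falls past a set limit of signal loss at no more than twice the top dose; inconclusive = flat fit between 30 and 70% signal loss, or poor fit; inactive = signal rise, flat within 30%, or crossing too high.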

Test: ATP-based viability loss in HEK293T cells – cell-based, CellTiter-Glo luminescence, cherry-pick, set 3, cytotoxicity control, dose response (AID 720588)
Conditions: HEK293T viability, CellTiter-Glo ATP luminescence, 72 h

Row | Structure (SMILES) | activity change, negative = cytotoxicity (at 26 µM (top of the series)) | activity change, negative = cytotoxicity (at 23.5 µM (top of the series))
1 | C[C@H]1CN([C@@H](C)CO)C(=O)c2cccc(NC(=O)CCCCCC(=O)Nc3ccccc3N)c2O[C@@H]1CN(C)Cc1ccc2c(c1)OCO2 | -20.1% (inactive) | 
2 | N#CC1C=Cc2c(ccc3ccccc23)N1C(=O)c1ccccc1 (stereo not drawn) | -20.1% (inactive) | 
3 | C[C@H]1CN([C@@H](C)CO)C(=O)c2cc(NS(=O)(=O)c3ccc(Cl)cc3)ccc2O[C@H]1CN(C)Cc1ccc(C(=O)Nc2ccccc2N)cc1 | -0.354% (inactive) | 
4 | C/C(=N\N(c1ccccc1)c1ccccc1)c1ccco1 | -14.9% (inactive) | 
5 | O=c1cc(CN2CCN(Cc3ccccc3)CC2)c2ccc(O)c(O)c2o1 | 28.6% (inactive) | 
6 | Nc1sc(-c2ccccc2)cc1-c1n[nH]c(=S)n1C1CCCCC1 | -4.9% (inactive) | 
7 | C[C@H](CO)N1C[C@H](C)[C@H](CN(C)Cc2ccccc2)Oc2ccc(NC(=O)CCCCCC(=O)Nc3ccccc3N)cc2CC1=O |  | -0.084% (inactive)
8 | Cc1ccc(S(=O)(=O)Nc2ccc3c(c2)C(=O)N([C@H](C)CO)C[C@@H](C)[C@@H](CN(C)Cc2ccc(C(=O)Nc4ccccc4N)cc2)O3)cc1 | -2.74% (inactive) | 
9 | COc1cc(/C=N/NC(=O)c2csc3c2CCCC3)cc(OC)c1O | 0.867% (inactive) | 
10 | Cc1c(-c2nc(-c3ccc(C(C)(C)C)cc3)no2)n(C)oc1=O | -15.2% (inactive) | 
11 | CC(=O)N1CCCC(c2cc(C(=O)Nc3ccccc3)no2)C1 (stereo not drawn) | -1.97% (inactive) | 
12 | Cc1nc2cc(-c3ccc(Cl)cc3)nn2c(C)c1CCC(=O)NC(C)c1ccc2c(c1)OCCO2 (stereo not drawn) | -34.9% (inactive) | 
13 | CCN1C/C(=C/c2ccc(OC)c(O)c2)C(=O)/C(=C/c2ccc(OC)c(O)c2)C1 | -23.5% (inactive) | 
14 | CC(C)c1ccccc1NC(=O)COC(=O)CCN1C(=O)/C(=C\C=C\c2ccccc2)SC1=S | -10.7% (inactive) | 
15 | C[C@@H]1CN([C@@H](C)CO)C(=O)c2cccc(NC(=O)Nc3cccc4ccccc34)c2O[C@@H]1CN(C)Cc1ccc(C(=O)Nc2ccccc2N)cc1 |  | -11.5% (inactive)
16 | Cc1cc(Br)ccc1N=C1C(=O)Nc2ccccc21 | -16.9% (inactive) | 
17 | Cc1ccccc1NC(=O)C(=Cc1ccc(C(=O)O)cc1)C(=O)Nc1ccccc1C | -47.2% (inactive) | 
18 | COC(=O)C[C@@H]1CC[C@@H]2[C@H](COc3ccc(NC(=O)Nc4cccc(C#N)c4)cc3C(=O)N2C)O1 | 53.6% (inactive) | 
19 | C[C@@H]1CN([C@H](C)CO)C(=O)CCCn2nncc2CO[C@H]1CN(C)Cc1ccc(Oc2ccccc2)cc1 | -3.49% (inactive) | 

Row | Structure (SMILES) | activity change, negative = cytotoxicity (at 26 µM (top of the series)) | activity change, negative = cytotoxicity (at 23.5 µM (top of the series))
20 | Cc1c(N=Cc2cc(Br)cc(Br)c2O)cccc1C(=O)O | 6.56% (inactive) | 
21 | O=C(CCCN1C(=O)/C(=C/c2ccccc2Cl)SC1=S)NNC(=O)c1ccc(Cl)cc1Cl | 12.7% (inactive) | 
22 | Cc1ccsc1/C=N/Nc1cccc(C(=O)O)c1 | -23% (inactive) | 
23 | O=C1CCCC2=C1C(c1ccccn1)Nc1ccc(C(=O)c3ccccc3)cc1N2 (stereo not drawn) | 7.12% (inactive) | 
24 | CCc1ccc(/C=C2\SC(=S)N(CCCC(=O)NC3=NCCS3)C2=O)cc1 | -17.5% (inactive) | 
25 | COC(=O)C[C@@H]1CC[C@@H]2[C@H](COc3ccc(NC(=O)c4ccc(F)c(F)c4)cc3C(=O)N2C)O1 | 16.7% (inactive) | 
26 | O=C1NC(=O)N(CCc2ccc(F)cc2)C(=O)/C1=C/C=C/c1ccccc1 | -10.7% (inactive) | 
27 | COc1ccc(CNc2ncc(-c3ccc(F)cc3)n2C)c2ccccc12 | -13.3% (inactive) | 
28 | O=C(NCCc1ccccc1)c1ccccc1NC(=O)C1CCCO1 (stereo not drawn) | 5.83% (inactive) | 
29 | O=C(N/N=C/c1cccs1)c1n[nH]c2c1CCCC2 | -10.2% (inactive) | 
30 | COc1ccc(C2c3cc4c(cc3OC(NNC(N)=O)C2C)OCO4)cc1 (stereo not drawn) | -16.2% (inactive) | 
31 | Brc1ccc(CSc2nnc(-c3ccco3)o2)cc1 | -18% (inactive) | 
32 | Cc1ccsc1/C=N/Nc1ccc(C(=O)O)cc1 | -12.7% (inactive) | 
33 | OC[C@H]1O[C@@H](n2cnc3c(NCc4ccco4)ncnc32)[C@H](O)[C@@H]1O | -42.7% (inactive) | 
34 | COC(=O)c1cccc(NC(=O)NC(=O)c2ccc(Cl)cc2)c1 | -17% (inactive) | 
35 | COc1cc(/C=N/NS(=O)(=O)c2ccc3ccccc3c2)ccc1OCc1ccc(C(=O)O)cc1 | -17.5% (inactive) | 
36 | COc1ccc2oc(-c3ccccc3)cc(=O)c2c1 | -22.5% (inactive) | 
37 | COC(=O)C[C@H]1CC[C@@H](NC(=O)Nc2ccc(C(F)(F)F)cc2)[C@H](CO)O1 | 9.14% (inactive) | 
38 | O=C1CCC2S/C(=C/Nc3ccc(C(F)(F)F)cc3)C(=O)N12 (stereo not drawn) | -9.48% (inactive) | 
